Results on 55 compounds are retold here after US8642609B2, “Modulators of ATP-binding cassette transporters” (Vertex Pharmaceuticals Incorporated, priority 2003, dated 2014).

Some results are limits rather than exact numbers.

The target of this assay is T1, ΔF508-CFTR (Homo sapiens, UniProt P13569, DEL508-508).
T1 construct: expressed in transfected cells
In words: Membrane potential optical assay (FRET/VIPR), identification of correction compounds. Format: cell-based. To be noted: for Emax: relative efficacy. An outline of the steps:
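Corrector screen: FRET voltage-sensor dyes (CC2-DMPE donor, DiSBAC2(3)) report Cl^− efflux-driven depolarization after 10 μM forskolin and 20 μM genistein in Cl^−-free medium. Beforehand, ΔF508-CFTR NIH3T3 fibroblasts received compound for 16 hrs at 37° C; temperature-corrected cells (27° C) served as positive control.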

T1 sequence (P13569 with tags, fused parts or gaps DEL508-508): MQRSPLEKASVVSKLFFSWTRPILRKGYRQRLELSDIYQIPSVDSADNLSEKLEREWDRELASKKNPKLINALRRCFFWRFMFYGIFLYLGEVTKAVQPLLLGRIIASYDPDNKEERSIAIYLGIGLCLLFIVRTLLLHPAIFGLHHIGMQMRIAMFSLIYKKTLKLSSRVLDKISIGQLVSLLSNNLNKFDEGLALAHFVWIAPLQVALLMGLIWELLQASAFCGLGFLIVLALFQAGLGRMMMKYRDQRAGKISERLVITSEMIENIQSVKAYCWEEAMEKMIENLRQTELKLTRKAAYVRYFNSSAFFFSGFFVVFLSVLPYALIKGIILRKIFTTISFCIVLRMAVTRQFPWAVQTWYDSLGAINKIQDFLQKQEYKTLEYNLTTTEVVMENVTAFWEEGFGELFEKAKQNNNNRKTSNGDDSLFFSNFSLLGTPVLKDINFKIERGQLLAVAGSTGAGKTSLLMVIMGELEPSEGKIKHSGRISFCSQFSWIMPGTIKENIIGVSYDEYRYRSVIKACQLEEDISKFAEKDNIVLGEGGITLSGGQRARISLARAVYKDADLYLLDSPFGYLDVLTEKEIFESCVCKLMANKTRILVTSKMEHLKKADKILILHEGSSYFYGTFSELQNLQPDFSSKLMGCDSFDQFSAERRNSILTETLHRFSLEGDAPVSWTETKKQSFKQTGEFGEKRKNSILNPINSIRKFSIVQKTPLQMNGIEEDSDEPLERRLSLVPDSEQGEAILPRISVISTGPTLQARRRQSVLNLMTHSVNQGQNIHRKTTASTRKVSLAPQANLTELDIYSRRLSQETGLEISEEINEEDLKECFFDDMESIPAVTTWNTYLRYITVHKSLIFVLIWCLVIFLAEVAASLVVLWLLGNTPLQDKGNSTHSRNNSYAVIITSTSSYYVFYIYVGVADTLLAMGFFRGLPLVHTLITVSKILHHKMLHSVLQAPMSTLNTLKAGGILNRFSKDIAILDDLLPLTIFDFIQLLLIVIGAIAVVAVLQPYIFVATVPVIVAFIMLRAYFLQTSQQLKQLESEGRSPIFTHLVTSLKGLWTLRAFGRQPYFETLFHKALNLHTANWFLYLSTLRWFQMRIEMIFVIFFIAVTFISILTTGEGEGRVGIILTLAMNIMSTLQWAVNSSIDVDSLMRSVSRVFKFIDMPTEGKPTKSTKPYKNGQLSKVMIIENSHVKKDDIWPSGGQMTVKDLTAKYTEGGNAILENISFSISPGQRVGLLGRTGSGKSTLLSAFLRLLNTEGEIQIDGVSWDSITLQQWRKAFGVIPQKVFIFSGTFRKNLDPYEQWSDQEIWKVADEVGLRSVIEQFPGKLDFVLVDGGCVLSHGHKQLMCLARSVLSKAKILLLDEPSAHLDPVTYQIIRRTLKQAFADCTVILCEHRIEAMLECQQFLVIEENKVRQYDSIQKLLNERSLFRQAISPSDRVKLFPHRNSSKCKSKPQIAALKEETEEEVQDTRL

For `CC(c1nc2ccccc2c(=O)n1C)N1CCN(S(=O)(=O)c2c(Cl)ccc3nonc23)CC1` (stereo not shown) [compound 254], the EC50 – broadly, the midpoint of the concentration-response curve – was under 10 µM and the maximum response (Emax) – broadly, the greatest response seen or fitted, relative to the assay's reference – was 25 to 100%. In the case of `COc1cc2nc(C(C)N3CCN(S(=O)(=O)c4ccc(Br)cc4)CC3)n(C)c(=O)c2cc1OC` (stereo not shown) [compound 284], the EC50 lay in the range of 25 to 60 µM and the Emax lay within 25 to 100%. Take `COc1ccc(S(=O)(=O)N2CCN(C(C)c3nc(N4CCSCC4)c4ccccc4n3)CC2)cc1` (stereo not shown) [compound 321]: the EC50 is under 10 µM and the Emax was over 100%. `CC(c1nc2ccccc2c(=O)n1C)N1CCC(N)C1` (stereo not shown) [compound 178]: the EC50 was in the range of 25 to 60 µM and the Emax was under 25%. For `CC(=O)Nc1ccc(S(=O)(=O)N2CCN(C(C)c3nc4ccccc4c(=O)n3C)CC2)cc1` (stereo not shown) [compound 230], in that order: 25 to 60 µM and under 25%. As to `COc1ccc(S(=O)(=O)N(C[C@@H]2CCCCN2S(=O)(=O)c2ccc(OC)cc2)C(C)c2nc3ccccc3c(=O)n2C)cc1` (stereo partly shown) [compound 203], the EC50 fell in the range of 25 to 60 µM and the Emax was under 25%. Consider `COc1ccc(S(=O)(=O)N2CCN(C(C)c3nc(N4CCCCC4)c4cc(F)ccc4n3)CC2)cc1` (stereo not shown) [compound 371], for which the EC50 is under 10 µM and the maximal response (Emax) was over 100%. For `CCCC(c1nc2ccccc2c(=O)n1CC)N1CCN(S(=O)(=O)c2ccc(OC)cc2)CC1` (stereo not shown) [compound 341], the EC50 is under 10 µM and the Emax is over 100%.

On to `COc1nc(C(C)N2CCN(S(=O)(=O)c3ccc(Br)cc3)CC2)nc2ccccc12` (stereo not shown) [compound 227], for which the EC50 was in the range of 25 to 60 µM and the Emax lay within 25 to 100%. On to `Cc1ccc(C(=O)N2CCN(C(C)c3cc4ccc(Cl)cc4c(=O)n3C)CC2)cc1` (stereo not shown) [compound 58], for which the EC50 lay in the range of 10 to 25 µM and the Emax is under 25%. As for `CC(c1nc2ccccc2c(=O)n1C)N1CCCNCC1` (stereo not shown) [compound 184], the EC50 was 25 to 60 µM and the Emax is under 25%. For the compound `CC(c1nc2ccc(Cl)cc2c(=O)n1C)N1CCN(C(=O)c2cccc(Cl)c2)CC1` (stereo not shown) [compound 83], the EC50 was 10 to 25 µM and the Emax was under 25%. For the compound `CC(c1nc(N(C)C)c2ccccc2n1)N1CCN(S(=O)(=O)c2ccc(Br)cc2)CC1` (stereo not shown) [compound 220], the EC50 lay within 25 to 60 µM and the Emax was over 100%.

Regarding `CCCn1c(C(C)N2CCN(C(=O)CSc3ccccc3)CC2)nc2ccccc2c1=O` (stereo not shown) [compound 46], the EC50 was in the range of 25 to 60 µM and the Emax was 25 to 100%.

Turning to `COc1ccc(S(=O)(=O)N2CCN(C(C)c3nc4ccc(C(N)=O)cc4c(=O)n3C)CC2)cc1` (stereo not shown) [compound 143], the 50% effective concentration (EC50) lay in the range of 25 to 60 µM and the Emax lay in the range of 25 to 100%. `COc1ccc(S(=O)(=O)N2CCN(C(C)c3nc(N4CCN(c5ccccc5)CC4)c4ccccc4n3)CC2)cc1` (stereo not shown) [compound 390]: the EC50 is under 10 µM and the Emax was over 100%. For `CC(c1nc2ccccc2c(=O)n1C)N1CCN(S(=O)(=O)c2cccc(C(=O)O)c2)CC1` (stereo not shown) [compound 246], the EC50 lay within 25 to 60 µM and the Emax was under 25%. Take `COc1ccc(S(=O)(=O)N2CCN(C(C)c3nc(N4CC5CCC4C5)c4ccccc4n3)CC2)cc1` (stereo not shown) [compound 361]: the concentration for a half-maximal effect (EC50) is under 10 µM and the Emax is over 100%.

`COc1ccc(S(=O)(=O)N2CCN(C(C)c3nc(OC(C)(C)C)c4ccccc4n3)CC2)cc1` (stereo not shown) [compound 311]: the EC50 is under 10 µM and the Emax was over 100%. `CCCC(c1nc(N2CCCCC2)c2ccccc2n1)N1CCN(S(=O)(=O)c2ccc(OC)cc2)CC1` (stereo not shown) [compound 339]: the concentration giving a half-maximal response (EC50) is under 10 µM and the Emax is over 100%. Turning to `COc1ccc(S(=O)(=O)N2CCN(C(C)c3nc(N(C)C)c4ccccc4n3)CC2)cc1` (stereo not shown) [compound 193], the EC50 was 25 to 60 µM and the Emax is 25 to 100%. On to `CC(c1nc2ccccc2c(=O)n1C)N1CCN(S(=O)(=O)c2ccc(C(F)(F)F)cc2)CC1` (stereo not shown) [compound 70], for which the EC50 was under 10 µM and the Emax fell in the range of 25 to 100%. As to `CC(c1nc2ccccc2c(=O)n1C)N1CCC(NS(=O)(=O)c2ccc(Br)cc2)C1` (stereo not shown) [compound 163], the EC50 was in the range of 25 to 60 µM and the Emax is under 25%. On to `COc1ccc(S(=O)(=O)N2CCN(C(C)c3nc4ccccc4c(=O)n3C)CC2)cc1OC` (stereo not shown) [compound 49], for which the EC50 fell in the range of 25 to 60 µM and the Emax was under 25%. For the compound `CNCCNC(C)c1nc2ccccc2c(=O)n1C` (stereo not shown) [compound 182], the EC50 is 25 to 60 µM and the Emax is under 25%. `COc1ccc(S(=O)(=O)N2CCN(C(C)c3nc4cc(Cl)ccc4c(=O)n3C)CC2)cc1OC` (stereo not shown) [compound 100]: the EC50 lay within 10 to 25 µM and the maximal effect (Emax) lay within 25 to 100%. Regarding `CC(c1nc2ccccc2c(=O)n1C)N1CCCN(S(=O)(=O)c2ccc(Cl)cc2)CC1` (stereo not shown) [compound 171], the EC50 fell in the range of 10 to 25 µM and the Emax lay in the range of 25 to 100%. As to `CCCn1c(C(C)N2CCN(S(=O)(=O)c3ccc(C)cc3)CC2)nc2ccccc2c1=O` (stereo not shown) [compound 29], the EC50 lay within 10 to 25 µM and the Emax is over 100%. As to `COc1ccc(S(=O)(=O)N2CCN(C(C)c3ncc(-c4ccccc4)c(N4CCCCC4)n3)CC2)cc1` (stereo not shown) [compound 376], the EC50 was under 10 µM and the Emax is 25 to 100%. On to `COc1ccc(S(=O)(=O)N2CCN(C(C)c3nc4ccc(Br)cc4c(=O)n3C)CC2)cc1` (stereo not shown) [compound 116], for which the EC50 is under 10 µM and the Emax fell in the range of 25 to 100%. `COc1ccc(S(=O)(=O)N2CCN(C(C)c3nc4ccccc4c(=O)n3CC(C)C)CC2)cc1` (stereo not shown) [compound 331]: the EC50 was under 10 µM and the Emax is over 100%.

Turning to `CCc1nc2cccc(Cl)c2c(=O)n1C` [compound 102], the EC50 fell in the range of 25 to 60 µM and the Emax is under 25%. With `CC(NCCN(C)S(=O)(=O)c1ccc(Cl)cc1)c1nc2ccccc2c(=O)n1C` (stereo not shown) [compound 212], the EC50 fell in the range of 25 to 60 µM and the maximum response (Emax) was under 25%. Turning to `COc1ccc(C(=O)N2CCN(C(C)c3nc4ccc(Cl)cc4c(=O)n3C)CC2)cc1OC` (stereo not shown) [compound 77], the EC50 is 25 to 60 µM and the Emax is under 25%. `COc1ccc(S(=O)(=O)N2CCN(C(C)c3nc4cccc(Cl)c4c(=O)n3C)CC2)cc1` (stereo not shown) [compound 106]: the EC50 lay in the range of 10 to 25 µM and the Emax is under 25%. Consider `Cn1c(CN2CCN(S(=O)(=O)c3ccccc3)CC2)nc2ccc(Cl)cc2c1=O` [compound 65], for which the EC50 lay in the range of 10 to 25 µM and the Emax is under 25%. Taken in the same sequence, the figures for `COc1ccc(S(=O)(=O)N2CCN(C(C)c3nc(N4CCN(C(C)=O)CC4)c4ccccc4n3)CC2)cc1` (stereo not shown) [compound 369] were 25 to 60 µM and 25 to 100%. With `CNC(=O)c1cnc(C(C)N2CCN(S(=O)(=O)c3ccc(OC)cc3)CC2)nc1N1CCCCC1` (stereo not shown) [compound 357], the EC50 is 25 to 60 µM and the Emax lay in the range of 25 to 100%. Taken in the same sequence, the figures for `CCNc1nc(C(C)N2CCN(S(=O)(=O)c3ccc(OC)cc3)CC2)nc2ccccc12` (stereo not shown) [compound 194] were 25 to 60 µM and 25 to 100%. Take `CCCn1c(C(C)OCC)nc2ccccc2c1=O` (stereo not shown) [compound 89]: the EC50 fell in the range of 25 to 60 µM and the Emax is under 25%. With `Cc1ccc(S(=O)(=O)N2CCN(C(C)c3nc4ccc(S(C)(=O)=O)cc4c(=O)n3C)CC2)cc1` (stereo not shown) [compound 139], the EC50 was 10 to 25 µM and the Emax lay in the range of 25 to 100%. Taken in the same sequence, the figures for `COc1ccc(S(=O)(=O)NC2CCN(C(C)c3nc4ccccc4c(=O)n3C)CC2)cc1` (stereo not shown) [compound 164] were 25 to 60 µM and 25 to 100%. For the compound `CC(c1nc2ccccc2c(=O)n1C)N1CCN(S(=O)(=O)c2ccc3oc(=O)ccc3c2)CC1` (stereo not shown) [compound 252], the EC50 is 25 to 60 µM and the Emax lay within 25 to 100%.

Regarding `Cc1ccccc1S(=O)(=O)N1CCN(C(C)c2nc3ccccc3c(=O)n2C)CC1` (stereo not shown) [compound 69], the EC50 was in the range of 25 to 60 µM and the Emax lay within 25 to 100%. As for `COc1ccc(S(=O)(=O)N2CCN(C(C)c3nc(N4CCOCC4)c4ccccc4n3)CC2)cc1` (stereo not shown) [compound 196], the concentration for a half-maximal effect (EC50) fell in the range of 25 to 60 µM and the Emax lay in the range of 25 to 100%. For the compound `COc1ccc(S(=O)(=O)N2CCCN(C(C)c3nc4ccccc4c(=O)n3C)CC2)cc1` (stereo not shown) [compound 170], the half-maximal effective concentration (EC50) lay within 25 to 60 µM and the Emax was 25 to 100%. As to `CCc1nc2ccc(Cl)cc2c(=O)n1C` [compound 88], the EC50 lay within 25 to 60 µM and the maximal effect (Emax) was under 25%. Taken in the same sequence, the figures for `CC(c1nc2ccccc2c(=O)n1C)N1CCC(NS(=O)(=O)c2ccc(Cl)cc2)C1` (stereo not shown) [compound 162] were 25 to 60 µM and under 25%. With `COc1ccc(S(=O)(=O)N2CCN(C(C)c3nc(N4CC[C@H](O)C4)c4ccccc4n3)CC2)cc1` (stereo partly shown) [compound 318], the EC50 is 25 to 60 µM and the Emax lay within 25 to 100%. Regarding `CC(c1nc(N2CCOCC2)c2ccccc2n1)N1CCN(S(=O)(=O)c2ccc(Cl)cc2)CC1` (stereo not shown) [compound 236], the EC50 was 25 to 60 µM and the Emax is 25 to 100%. For `CC(c1nc2cc(Cl)ccc2c(=O)n1C)N1CCN(S(=O)(=O)c2ccc(Cl)cc2)CC1` (stereo not shown) [compound 94], in that order: under 10 µM and 25 to 100%. Consider `COc1ccc(S(=O)(=O)N2CCN(C(C)c3nc(N4CCC(N5CCCCC5)CC4)c4ccccc4n3)CC2)cc1` (stereo not shown) [compound 317], for which the EC50 lay within 25 to 60 µM and the Emax was under 25%. For `COc1ccc(S(=O)(=O)N2CCN(C(C)c3nc(N4CCC5(CC4)OCCO5)c4ccccc4n3)CC2)cc1` (stereo not shown) [compound 323], the EC50 is 10 to 25 µM and the Emax was in the range of 25 to 100%. With `CC(NCC1CCCCN1)c1nc2ccccc2c(=O)n1C` (stereo not shown) [compound 183], the Emax was under 25%.

For the compound `COc1ccc(S(=O)(=O)N2CCN(C(C)c3nc(N4CC[C@@H](NC(C)=O)C4)c4ccccc4n3)CC2)cc1` (stereo partly shown) [compound 394], the EC50 fell in the range of 25 to 60 µM and the maximum response (Emax) fell in the range of 25 to 100%.
